Measured values from patent US9695155B2, “Herbicidal substituted pyrimidinyloxy benzene compounds” (E. I. DU PONT DE NEMOURS AND COMPANY, priority 2013, dated 2017).

What was measured:
large (Lg) crabgrass [1] = assay: Test A preemergence; format: in vivo, Digitaria sanguinalis; details: for Crabgrass, Large plant response rating: 500 g ai/ha, approx. 10 days
Text: (§1) Seeds of plant species selected from barnyardgrass (Echinochloa crus-galli), kochia (Kochia scoparia), ragweed (common ragweed, Ambrosia elatior), Italian ryegrass (Lolium multiflorum), large (Lg) crabgrass (Digitaria sanguinalis), giant foxtail (Setaria faberii), morningglory (Ipomoea spp.), pigweed (Amaranthus retroflexus), velvetleaf (Abutilon theophrasti), wheat (Triticum aestivum), and corn (Zea mays) were planted into a blend of loam soil and sand and treated preemergence with a directed soil spray using test chemicals formulated in a non-phytotoxic solvent mixture which included a surfactant.
(§2) At the same time, plants selected from these crop and weed species and also blackgrass (Alopecurus myosuroides), and galium (catchweed bedstraw, Galium aparine) were planted in pots containing the same blend of loam soil and sand and treated with postemergence applications of test chemicals formulated in the same manner. Plants ranged in height from 2 to 10 cm and were in the one- to two-leaf stage for the postemergence treatment. Treated plants and untreated controls were maintained in a greenhouse for approximately 10 days, after which time all treated plants were compared to untreated controls and visually evaluated for injury. Plant response ratings, summarized in Table A, are based on a 0 to 100 scale where 0 is no effect and 100 is complete control. A dash (-) response means no test result.

barnyardgrass [2] = assay: Test A preemergence; format: in vivo, Echinochloa crus-galli; details: for Barnyardgrass plant response rating: 500 g ai/ha, approx. 10 days
Text: as §1, §2

velvetleaf [3] = assay: Test A postemergence; format: in vivo, Abutilon theophrasti
Text: as §1, §2

morningglory [4] = assay: Test A postemergence; format: in vivo, Ipomoea spp.
Text: as §1, §2

wheat [5] = assay: Test A postemergence; format: in vivo, Triticum aestivum
Text: as §1, §2

velvetleaf [6] = assay: Test A preemergence; format: in vivo, Abutilon theophrasti; details: for Velvetleaf plant response rating: 0 to 100 scale, 0 no effect, 100 complete control, approx. 10 days
Text: as §1, §2

barnyardgrass [7] = assay: Test A postemergence; format: in vivo, Echinochloa crus-galli
Text: as §1, §2

morningglory [8] = assay: Test A preemergence; format: in vivo, Ipomoea spp.; details: for Morningglory plant response rating: 0 to 100 scale, 0 no effect, 100 complete control, approx. 10 days
Text: as §1, §2

wheat [9] = assay: Test A preemergence; format: in vivo, Triticum aestivum; details: for Wheat plant response rating: 0 to 100 scale, 0 no effect, 100 complete control, approx. 10 days
Text: as §1, §2

corn [10] = assay: Test A postemergence; format: in vivo, Zea mays
Text: as §1, §2

giant foxtail [11] = assay: Test A preemergence; format: in vivo, Setaria faberii; details: for Foxtail, Giant plant response rating: 0 to 100 scale, 0 no effect, 100 complete control, approx. 10 days
Text: as §1, §2

large (Lg) crabgrass [12] = assay: Test A postemergence; format: in vivo, Digitaria sanguinalis
Text: as §1, §2

giant foxtail [13] = assay: Test A postemergence; format: in vivo, Setaria faberii
Text: as §1, §2

pigweed [14] = assay: Test A postemergence; format: in vivo, Amaranthus retroflexus
Text: as §1, §2

corn [15] = assay: Test A preemergence; format: in vivo, Zea mays; details: for Corn plant response rating: 500 g ai/ha, approx. 10 days
Text: as §1, §2

pigweed [16] = assay: Test A preemergence; format: in vivo, Amaranthus retroflexus; details: for Pigweed plant response rating: 0 to 100 scale, 0 no effect, 100 complete control, approx. 10 days
Text: as §1, §2

[17] = 1000 g ai/ha, 0 to 100 scale, 0 no effect, 100 complete control
[18] = 125 g ai/ha, 0 to 100 scale where 0 is no effect and 100 is complete control
[19] = 0 to 100 scale, 0 no effect, 100 complete control
[20] = 500 g ai/ha, 0 to 100 scale, 0 no effect, 100 complete control
[21] = 500 g ai/ha, 0 to 100 scale where 0 is no effect and 100 is complete control

Compound: Fc1cnc(Oc2ccccc2-n2cccn2)nc1 [Compound 14]
- Plant response rating, Crabgrass, Large (large (Lg) crabgrass [1]; [17]): 90
- Plant response rating, Barnyardgrass (barnyardgrass [2]; [17]): 30
- Plant response rating, Velvetleaf (velvetleaf [3]; [17]): 90
- Plant response rating, Morningglory (morningglory [4]; [17]): 70
- Plant response rating, Wheat (wheat [5]; [17]): 20
- Velvetleaf plant response rating (velvetleaf [6]; 1000 g ai/ha): 90
- Plant response rating, Barnyardgrass (barnyardgrass [7]; [17]): 20
- Morningglory plant response rating (morningglory [8]; 1000 g ai/ha): 20
- Wheat plant response rating (wheat [9]; 1000 g ai/ha): 20
- Plant response rating, Corn (corn [10]; [17]): 20
- Foxtail, Giant plant response rating (giant foxtail [11]; 1000 g ai/ha): 90
- Plant response rating, Crabgrass, Large (large (Lg) crabgrass [12]; [17]): 30
- Plant response rating, Foxtail, Giant (giant foxtail [13]; [17]): 40
- Plant response rating, Pigweed (pigweed [14]; [17]): 100
- Plant response rating, Corn (corn [15]; [17]): 0
- Pigweed plant response rating (pigweed [16]; 1000 g ai/ha): 100

Compound: COc1cccc(-n2cc(Br)cn2)c1Oc1ncc(Cl)cn1 [Compound 41]
- Plant response rating, Crabgrass, Large (large (Lg) crabgrass [1]; [18]): 30
- Crabgrass, Large plant response rating (large (Lg) crabgrass [1]; [19]): 70
- Plant response rating, Barnyardgrass (barnyardgrass [2]; [18]): 10
- Barnyardgrass plant response rating (barnyardgrass [2]; [19]): 50
- Plant response rating, Velvetleaf (velvetleaf [3]; [18]): 70
- Plant response rating, Velvetleaf (velvetleaf [3]; [20]): 100
- Plant response rating, Morningglory (morningglory [4]; [18]): 20
- Plant response rating, Morningglory (morningglory [4]; [20]): 30
- Plant response rating, Wheat (wheat [5]; [18]): 0
- Plant response rating, Wheat (wheat [5]; [20]): 0
- Plant response rating, Velvetleaf (velvetleaf [6]; [18]): 60
- Velvetleaf plant response rating (velvetleaf [6]; 500 g ai/ha): 70
- Plant response rating, Barnyardgrass (barnyardgrass [7]; [18]): 10
- Plant response rating, Barnyardgrass (barnyardgrass [7]; [20]): 50
- Plant response rating, Morningglory (morningglory [8]; [18]): 0
- Morningglory plant response rating (morningglory [8]; 500 g ai/ha): 0
- Plant response rating, Wheat (wheat [9]; [18]): 0
- Wheat plant response rating (wheat [9]; 500 g ai/ha): 0
- Plant response rating, Corn (corn [10]; [18]): 0
- Plant response rating, Corn (corn [10]; [20]): 20
- Plant response rating, Foxtail, Giant (giant foxtail [11]; [18]): 10
- Foxtail, Giant plant response rating (giant foxtail [11]; 500 g ai/ha): 80
- Plant response rating, Crabgrass, Large (large (Lg) crabgrass [12]; [18]): 20
- Plant response rating, Crabgrass, Large (large (Lg) crabgrass [12]; [20]): 70
- Plant response rating, Foxtail, Giant (giant foxtail [13]; [18]): 20
- Plant response rating, Foxtail, Giant (giant foxtail [13]; [20]): 80
- Plant response rating, Pigweed (pigweed [14]; [18]): 50
- Plant response rating, Pigweed (pigweed [14]; [20]): 80
- Plant response rating, Corn (corn [15]; [18]): 0
- Corn plant response rating (corn [15]; [19]): 0
- Plant response rating, Pigweed (pigweed [16]; [18]): 70
- Pigweed plant response rating (pigweed [16]; 500 g ai/ha): 100

Compound: N#Cc1cnn(-c2ccccc2Oc2ncc(Br)cn2)n1 [Compound 56]
- Plant response rating, Crabgrass, Large (large (Lg) crabgrass [1]; [17]): 80
- Plant response rating, Barnyardgrass (barnyardgrass [2]; [17]): 0
- Plant response rating, Velvetleaf (velvetleaf [3]; [17]): 100
- Plant response rating, Morningglory (morningglory [4]; [17]): 0
- Plant response rating, Wheat (wheat [5]; [17]): 0
- Velvetleaf plant response rating (velvetleaf [6]; 1000 g ai/ha): 90
- Plant response rating, Barnyardgrass (barnyardgrass [7]; [17]): 30
- Morningglory plant response rating (morningglory [8]; 1000 g ai/ha): 0
- Wheat plant response rating (wheat [9]; 1000 g ai/ha): 0
- Plant response rating, Corn (corn [10]; [17]): 20
- Foxtail, Giant plant response rating (giant foxtail [11]; 1000 g ai/ha): 30
- Plant response rating, Crabgrass, Large (large (Lg) crabgrass [12]; [17]): 40
- Plant response rating, Foxtail, Giant (giant foxtail [13]; [17]): 30
- Plant response rating, Pigweed (pigweed [14]; [17]): 90
- Plant response rating, Corn (corn [15]; [17]): 20
- Pigweed plant response rating (pigweed [16]; 1000 g ai/ha): 100

Compound: FC(F)(F)Oc1cccc(Oc2ncc(Cl)cn2)c1-n1cc(Br)cn1 [Compound 78]
- Crabgrass, Large plant response rating (large (Lg) crabgrass [1]; [19]): 100
- Barnyardgrass plant response rating (barnyardgrass [2]; [19]): 80
- Plant response rating, Velvetleaf (velvetleaf [3]; [21]): 100
- Plant response rating, Morningglory (morningglory [4]; [21]): 90
- Plant response rating, Wheat (wheat [5]; [21]): 20
- Velvetleaf plant response rating (velvetleaf [6]; 500 g ai/ha): 50
- Plant response rating, Barnyardgrass (barnyardgrass [7]; [20]): 50
- Morningglory plant response rating (morningglory [8]; 500 g ai/ha): 20
- Wheat plant response rating (wheat [9]; 500 g ai/ha): 10
- Plant response rating, Corn (corn [10]; [20]): 30
- Foxtail, Giant plant response rating (giant foxtail [11]; 500 g ai/ha): 100
- Plant response rating, Crabgrass, Large (large (Lg) crabgrass [12]; [20]): 100
- Plant response rating, Foxtail, Giant (giant foxtail [13]; [21]): 90
- Plant response rating, Pigweed (pigweed [14]; [21]): 100
- Corn plant response rating (corn [15]; [19]): 10
- Pigweed plant response rating (pigweed [16]; 500 g ai/ha): 100
